Data: US9169279B2, “Crystallization method and bioavailability” (THAR PHARMACEUTICALS, INC., priority 2009, dated 2015)
Read-outs that look alike come from different tables or passages of the source.

Key:
[1] = in vivo; cited from earlier work
[2] = Dog urine excretion: quantity of zoledronic acid in urine over collection intervals (LC/MS/MS); assay type: in vivo, Beagle dogs; conditions: Leg 38, 0.12 mg/kg IV, saline solution
[3] = Rat PK study: zoledronic acid in plasma after IV, oral gavage or intraduodenal dosing (LC/MS/MS); assay type: in vivo; conditions: male, Sprague-Dawley, read-out: Average plasma concentration of 3 rats
Text: (§1) This can be attributed to the fact that both animals have historically been used in the safety evaluation and PK screening studies and are recommended by appropriate regulatory agencies. […] Additional tests included ID administration in rats and administration of enteric coated capsules in dogs.
(§2) USA. Some animals have surgical catheters (jugular vein and intraduodenum) were implanted to the animals prior to the studies. Beagle dogs from Marshall Farms, N.Y., USA, weighing from (9-12 kg) were used in the studies presented herein. Surgical catheters (jugular vein) were implanted prior to the studies.
The dose of each rat was calculated on a per rat basis (not on an average weight of all the rats in the lot). • ii. Oral gavage administration: solid suspensions were administered. The dose of each rat was calculated on a per rat basis (not on an average weight of all the rats in the lot). […] Duodenal cannula administration: solid suspensions were administered. The dose of each rat was calculated on a per rat basis (not on an average weight of all the rats in the lot).
Two major groups of animals were selected for the study. • Group 1 consists of rat studies. […] Details of Group 1 Rat Dosing
Plasma was collected after centrifugation at 13,000 rpm for 5 min at 4° C. and immediately frozen and stored at −60 to −80° C. until analysis.

[4] = according to FDA Summary Basis of Approval; cited from earlier work
[5] = Dog PK study: zoledronic acid in serum after IV or oral capsule dosing, enteric or non-enteric coated, with or without excess coformer (LC/MS/MS); assay type: in vivo, Beagle dogs; conditions: beagle
Text: as §1, §2
The dose volume of each dog was adjusted based upon the average weight of the dog. • ii. […]
Blood samples were placed without the use of an anticoagulant and allowed to sit at room temperature for approximately 30 minutes. Samples were then centrifuged at a temperature of 4° C., at a speed of 13,000 rpm, for 5 minutes. Serum was collected and split into two aliquots and stored frozen (−80° C.) until analysis.
In this study, capsules of particulate materials (zoledronic:DL-lysine:water complex and excess pure DL-lysine).

[6] = other: intraduodenal (ID, duodenal cannula), 5 mg/kg

Question: Which “gastric and intestinal irritations” value [1] does the source give for `O=P(O)(O)C(O)(Cn1ccnc1)P(=O)(O)O` [Zoledronic acid, (1-hydroxy-2-imidazol-1-yl-1-phosphono-ethyl)phosphonic acid] here?
Answer: The value was “severe gastric and intestinal irritations”.

Question: What about the “Average quantity of zoledronic acid in urine excretion of 4 dogs” value (shortened to “Average quantity of zoledronic acid”) ([2]; interval 0-4 h) of the same molecule?
Answer: Its value is 242050 ng.

Question: And the “Average quantity of zoledronic acid” value ([2]; interval 4-8 h)?
Answer: The value was 21165 ng.

Question: And the “Average quantity of zoledronic acid” value ([2]; interval 8-12 h)?
Answer: Its value is 10925 ng.

Question: What about the “Average quantity of zoledronic acid” value ([2]; interval 12-24 h) of the same molecule?
Answer: The value was 43700 ng.

Question: What about the “Average quantity of zoledronic acid” value ([2]; interval 24-96 h) of the same molecule?
Answer: The value was 263151 ng.

Question: And the concentration at 0.083333 hour ([3]; iv, 0.5 mg/kg)?
Answer: The concentration at 0.083333 hour was 3250 ng/mL.

Question: And the concentration at 0.25 hour ([3]; iv, 0.5 mg/kg)?
Answer: The concentration at 0.25 hour was 1950 ng/mL.

Question: And the concentration at 0.5 hour ([3]; iv, 0.5 mg/kg)?
Answer: Its concentration at 0.5 hour is 1130 ng/mL.

Question: And the concentration at 1 hour ([3]; iv, 0.5 mg/kg)?
Answer: The concentration at 1 hour was 404 ng/mL.

Question: What about the concentration at 2 hour ([3]; iv, 0.5 mg/kg) of the same molecule?
Answer: Its concentration at 2 hour is 113 ng/mL.

Question: What about the concentration at 4 hour ([3]; iv, 0.5 mg/kg) of the same molecule?
Answer: Its concentration at 4 hour is 30.5 ng/mL.

Question: What about the concentration at 8 hour ([3]; iv, 0.5 mg/kg) of the same molecule?
Answer: Its concentration at 8 hour is 10.7 ng/mL.

Question: What about the concentration at 24 hour ([3]; iv, 0.5 mg/kg) of the same molecule?
Answer: The concentration at 24 hour was 2.98 ng/mL.

Question: What about the concentration at 0.25 hour [3, 6] of the same molecule?
Answer: Its concentration at 0.25 hour is 146 ng/mL.

Question: And the concentration at 0.5 hour [3, 6]?
Answer: Its concentration at 0.5 hour is 110 ng/mL.

Question: And the concentration at 1 hour [3, 6]?
Answer: Its concentration at 1 hour is 47.4 ng/mL.

Question: What about the concentration at 2 hour [3, 6] of the same molecule?
Answer: Its concentration at 2 hour is 12.9 ng/mL.

Question: What about the concentration at 4 hour [3, 6] of the same molecule?
Answer: The concentration at 4 hour was 3.85 ng/mL.

Question: What about the concentration at 8 hour [3, 6] of the same molecule?
Answer: Its concentration at 8 hour is 0.97 ng/mL.

Question: And the concentration at 24 hour [3, 6]?
Answer: Its concentration at 24 hour is 0 ng/mL.

Question: What about the concentration at 0.25 hour ([3]; po, 5 mg/kg) of the same molecule?
Answer: The concentration at 0.25 hour was 330 ng/mL.

Question: What about the concentration at 0.5 hour ([3]; po, 5 mg/kg) of the same molecule?
Answer: Its concentration at 0.5 hour is 267 ng/mL.

Question: What about the concentration at 1 hour ([3]; po, 5 mg/kg) of the same molecule?
Answer: The concentration at 1 hour was 139 ng/mL.

Question: And the concentration at 2 hour ([3]; po, 5 mg/kg)?
Answer: The concentration at 2 hour was 47.7 ng/mL.

Question: What about the concentration at 4 hour ([3]; po, 5 mg/kg) of the same molecule?
Answer: Its concentration at 4 hour is 11.8 ng/mL.

Question: What about the concentration at 8 hour ([3]; po, 5 mg/kg) of the same molecule?
Answer: Its concentration at 8 hour is 2 ng/mL.

Question: What about the concentration at 24 hour ([3]; po, 5 mg/kg) of the same molecule?
Answer: The concentration at 24 hour was 0 ng/mL.

Question: And the oral bioavailability [4]?
Answer: Its oral bioavailability is “approximately 1%”.

Question: What about the bioavailability ([5]; Leg 37: 63.1 mg Zoledronic, DL-lysine, and water complex with 1965.7 mg DL-lysine monohydrate, PO gelatin capsules) of the same molecule?
Answer: The bioavailability was over 8%.

Question: And the concentration at 0 h ([5]; intravenous, 0.12 mg/kg, Leg 18, 15 min IV infusion 0.12 mg/kg, saline solution, Time 0 hour (pre-dose), read-out: Average serum concentration of 5 dogs)?
Answer: The concentration at 0 h was 0 ng/mL.

Question: And the concentration at 5 min ([5]; intravenous, 0.12 mg/kg, Leg 18, 15 min IV infusion 0.12 mg/kg, saline solution, Time 0.0833 hour, read-out: Average serum concentration of 5 dogs)?
Answer: The concentration at 5 min was 309 ng/mL.

Question: And the concentration at 10 min ([5]; intravenous, 0.12 mg/kg, Leg 18, 15 min IV infusion 0.12 mg/kg, saline solution, Time 0.1667 hour, read-out: Average serum concentration of 5 dogs)?
Answer: Its concentration at 10 min is 525 ng/mL.

Question: And the concentration at 0.25 h ([5]; intravenous, 0.12 mg/kg, Leg 18, 15 min IV infusion 0.12 mg/kg, saline solution, Time 0.25 hour, read-out: Average serum concentration of 5 dogs)?
Answer: Its concentration at 0.25 h is 717 ng/mL.

Question: What about the concentration at 25 min ([5]; intravenous, 0.12 mg/kg, Leg 18, 15 min IV infusion 0.12 mg/kg, saline solution, Time 0.4167 hour, read-out: Average serum concentration of 5 dogs) of the same molecule?
Answer: The concentration at 25 min was 392 ng/mL.

Question: What about the concentration at 0.5 h ([5]; intravenous, 0.12 mg/kg, Leg 18, 15 min IV infusion 0.12 mg/kg, saline solution, Time 0.5 hour, read-out: Average serum concentration of 5 dogs) of the same molecule?
Answer: Its concentration at 0.5 h is 323 ng/mL.

Question: What about the concentration at 0.75 h ([5]; intravenous, 0.12 mg/kg, Leg 18, 15 min IV infusion 0.12 mg/kg, saline solution, Time 0.75 hour, read-out: Average serum concentration of 5 dogs) of the same molecule?
Answer: Its concentration at 0.75 h is 202 ng/mL.

Question: What about the concentration at 1 h ([5]; intravenous, 0.12 mg/kg, Leg 18, 15 min IV infusion 0.12 mg/kg, saline solution, Time 1 hour, read-out: Average serum concentration of 5 dogs) of the same molecule?
Answer: The concentration at 1 h was 133 ng/mL.

Question: What about the concentration at 1.25 h ([5]; intravenous, 0.12 mg/kg, Leg 18, 15 min IV infusion 0.12 mg/kg, saline solution, Time 1.25 hour, read-out: Average serum concentration of 5 dogs) of the same molecule?
Answer: Its concentration at 1.25 h is 93.2 ng/mL.

Question: What about the concentration at 1.5 h ([5]; intravenous, 0.12 mg/kg, Leg 18, 15 min IV infusion 0.12 mg/kg, saline solution, Time 1.5 hour, read-out: Average serum concentration of 5 dogs) of the same molecule?
Answer: Its concentration at 1.5 h is 69.1 ng/mL.

Question: What about the concentration at 2 h ([5]; intravenous, 0.12 mg/kg, Leg 18, 15 min IV infusion 0.12 mg/kg, saline solution, Time 2 hour, read-out: Average serum concentration of 5 dogs) of the same molecule?
Answer: The concentration at 2 h was 38.4 ng/mL.

Question: And the concentration at 4 h ([5]; intravenous, 0.12 mg/kg, Leg 18, 15 min IV infusion 0.12 mg/kg, saline solution, Time 4 hour, read-out: Average serum concentration of 5 dogs)?
Answer: The concentration at 4 h was 9.14 ng/mL.

Question: And the concentration at 8 h ([5]; intravenous, 0.12 mg/kg, Leg 18, 15 min IV infusion 0.12 mg/kg, saline solution, Time 8 hour, read-out: Average serum concentration of 5 dogs)?
Answer: The concentration at 8 h was 3.24 ng/mL.

Question: And the concentration at 24 h ([5]; intravenous, 0.12 mg/kg, Leg 18, 15 min IV infusion 0.12 mg/kg, saline solution, Time 24 hour, read-out: Average serum concentration of 5 dogs)?
Answer: Its concentration at 24 h is 1.21 ng/mL.

Question: And the concentration at 0.0333 hour ([5]; iv, 0.05 mg/kg, zoledronic acid in dog serum, Leg 1, IV 0.05 mg/kg, saline solution, Time 0.0333 hour, read-out: Average serum concentration of 5 dogs)?
Answer: Its concentration at 0.0333 hour is 413 ng/mL.

Question: And the concentration at 0.0833 hour ([5]; iv, 0.05 mg/kg, zoledronic acid in dog serum, Leg 1, IV 0.05 mg/kg, saline solution, Time 0.0833 hour, read-out: Average serum concentration of 5 dogs)?
Answer: Its concentration at 0.0833 hour is 312 ng/mL.

Question: What about the concentration at 0.1667 hour ([5]; iv, 0.05 mg/kg, zoledronic acid in dog serum, Leg 1, IV 0.05 mg/kg, saline solution, Time 0.1667 hour, read-out: Average serum concentration of 5 dogs) of the same molecule?
Answer: The concentration at 0.1667 hour was 229 ng/mL.

Question: And the concentration at 0.25 hour ([5]; iv, 0.05 mg/kg, zoledronic acid in dog serum, Leg 1, IV 0.05 mg/kg, saline solution, Time 0.25 hour, read-out: Average serum concentration of 5 dogs)?
Answer: The concentration at 0.25 hour was 179 ng/mL.

Question: And the concentration at 0.75 hour ([5]; iv, 0.05 mg/kg, zoledronic acid in dog serum, Leg 1, IV 0.05 mg/kg, saline solution, Time 0.75 hour, read-out: Average serum concentration of 5 dogs)?
Answer: Its concentration at 0.75 hour is 75.9 ng/mL.

Question: What about the concentration at 1 hour ([5]; iv, 0.05 mg/kg, zoledronic acid in dog serum, Leg 1, IV 0.05 mg/kg, saline solution, Time 1 hour, read-out: Average serum concentration of 5 dogs) of the same molecule?
Answer: The concentration at 1 hour was 56.1 ng/mL.

Question: And the concentration at 1.5 hour ([5]; iv, 0.05 mg/kg, zoledronic acid in dog serum, Leg 1, IV 0.05 mg/kg, saline solution, Time 1.5 hour, read-out: Average serum concentration of 5 dogs)?
Answer: Its concentration at 1.5 hour is 30.4 ng/mL.

Question: And the concentration at 2 hour ([5]; iv, 0.05 mg/kg, zoledronic acid in dog serum, Leg 1, IV 0.05 mg/kg, saline solution, Time 2 hour, read-out: Average serum concentration of 5 dogs)?
Answer: The concentration at 2 hour was 17.6 ng/mL.

Question: What about the concentration at 4 hour ([5]; iv, 0.05 mg/kg, zoledronic acid in dog serum, Leg 1, IV 0.05 mg/kg, saline solution, Time 4 hour, read-out: Average serum concentration of 5 dogs) of the same molecule?
Answer: The concentration at 4 hour was 4.29 ng/mL.

Question: What about the concentration at 8 hour ([5]; iv, 0.05 mg/kg, zoledronic acid in dog serum, Leg 1, IV 0.05 mg/kg, saline solution, Time 8 hour, read-out: Average serum concentration of 5 dogs) of the same molecule?
Answer: The concentration at 8 hour was 1.13 ng/mL.

Question: And the concentration at 24 hour ([5]; iv, 0.05 mg/kg, zoledronic acid in dog serum, Leg 1, IV 0.05 mg/kg, saline solution, Time 24 hour, read-out: Average serum concentration of 5 dogs)?
Answer: The concentration at 24 hour was 0 ng/mL.

Question: What about the concentration at 48 hour ([5]; iv, 0.05 mg/kg, zoledronic acid in dog serum, Leg 1, IV 0.05 mg/kg, saline solution, Time 48 hour, read-out: Average serum concentration of 5 dogs) of the same molecule?
Answer: The concentration at 48 hour was 0 ng/mL.

Question: What about the concentration at 0 h ([5]; iv, 0.12 mg/kg, Leg 38, 0.12 mg/kg IV, saline solution, 0 h, read-out: Average serum concentration of 4 dogs) of the same molecule?
Answer: The concentration at 0 h was 0 ng/mL.
